Laboratory results reported in PubChem BioAssay (NCI).
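Growth conditions: 96-well plates. Treatment: test compound, 48 hours, 5 concentrations. Analysis: linear interpolation between bracketing concentrations; unreached endpoints set to highest concentration. Here, GI50 denotes the concentration required for 50% inhibition of growth. TGI: total growth inhibition.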

Columns and labels:
Test in all cases: growth of human tumour cells (NCI), 48 h
HL-60(TB) leukemia = tested on: HL-60(TB) leukemia
PC-3 prostate = tested on: PC-3 prostate
RPMI-8226 leukemia = tested on: RPMI-8226 leukemia
SF-295 CNS = tested on: SF-295 CNS
SK-MEL-2 melanoma = tested on: SK-MEL-2 melanoma
SK-MEL-28 melanoma = tested on: SK-MEL-28 melanoma
SK-OV-3 ovarian = tested on: SK-OV-3 ovarian
SR leukemia = tested on: SR leukemia
TK-10 renal = tested on: TK-10 renal
MDA-MB-435 = tested on: MDA-MB-435

SMILES | GI50 (HL-60(TB) leukemia) [µM] | TGI (HL-60(TB) leukemia) [µM] | GI50 (PC-3 prostate) [µM] | TGI (PC-3 prostate) [µM] | GI50 (RPMI-8226 leukemia) [µM] | TGI (RPMI-8226 leukemia) [µM] | GI50 (SF-295 CNS) [µM] | TGI (SF-295 CNS) [µM] | GI50 (SK-MEL-2 melanoma) [µM] | TGI (SK-MEL-2 melanoma) [µM] | GI50 (SK-MEL-28 melanoma) [µM] | GI50 (SK-OV-3 ovarian) [µM] | TGI (SK-OV-3 ovarian) [µM] | GI50 (SR leukemia) [µM] | TGI (SR leukemia) [µM] | GI50 (TK-10 renal) [µM] | TGI (TK-10 renal) [µM] | GI50 (MDA-MB-435) [µM] | TGI (MDA-MB-435) [µM] | TGI (SK-MEL-28 melanoma) [µM]
C1=C2CNCC3=Cc4ccc5ccccc5c4OC23Oc2c1ccc1ccccc21 | 2.69 | 7.68 | 3.5 | 18.2 | 5.44 | 65.3 | 3.07 | 15.6 | 5.47 | 22.8 | 7.38 | 3.41 | 12.8 | 2.2 | 5.4 | 9.08 | 27.4 | – | – | –
COc1ccc2cc(-c3c(-c4ccncc4)nc(-c4ccc(S(C)=O)cc4C)n3C)ccc2c1 (stereo not drawn) | 9.61 | > 25 | 15.9 | > 25 | 14.1 | > 25 | 16.6 | > 25 | > 25 | > 25 | > 25 | 11.3 | > 25 | – | – | 7.62 | > 25 | 11.2 | > 25 | > 25
C/C(=N\n1c(N)c(C#N)c(-c2ccc(Cl)cc2)c(C#N)c1=O)c1ccncc1 | – | – | 2.41 | 16.8 | 7.96 | 69.7 | 4.65 | 86 | 27.8 | > 100 | 56.8 | 10.1 | 64.6 | 3.3 | > 100 | 6.04 | 38.9 | – | – | > 100
c1ccc(NC[Si]23OCCN(CCO2)CCO3)cc1 | – | – | – | – | – | > 100 | – | > 100 | – | > 100 | – | – | > 100 | – | > 100 | – | > 100 | – | – | > 100
C/C(=N/O)c1ccc2c(c1)C(=NO)c1cc(/C(C)=N/O)ccc1-2 | – | 91.4 | – | – | – | > 100 | – | 29.1 | – | 40.1 | – | – | 36.5 | – | > 100 | – | – | – | – | 31.7
C=CC1=CC(C)C[C@]1(O)C(=O)OC (stereo partly drawn) | > 100 | – | – | – | – | < 0.01 | > 100 | – | > 100 | – | > 100 | – | > 100 | – | > 100 | > 100 | – | – | – | –
NC(N)=N/N=C/c1c(-c2ccc(Cl)c([N+](=O)[O-])c2)nc2n1CCS2 | 2.34 | 6.27 | 2.93 | 15.1 | 3.66 | 10.9 | 7 | 20.8 | – | – | 16.6 | 24.7 | 75.1 | – | – | – | – | 9.63 | 22.2 | 35.5
COc1ccc(-c2nc3c(c(=O)n2C(C)=O)C(c2ccc(Cl)cc2)c2sc4c(Cl)cccc4c2O3)cc1 (stereo not drawn) | 0.3 | 0.982 | 0.337 | 2.39 | 0.529 | 5.1 | 0.256 | 1.27 | 0.374 | 1.69 | 1.15 | 0.349 | 2.09 | 0.354 | 5.05 | 0.846 | 2.67 | – | – | 3.39
CC(=O)OCCC(O[Si](c1ccccc1)(c1ccccc1)C(C)(C)C)C(C)(C)O (stereo not drawn) | – | – | – | – | – | 63 | – | 45.6 | – | > 100 | – | – | > 100 | – | – | – | > 100 | – | – | > 100
CC(=O)[CH-]C(=O)c1ccccc1.CC(=O)[CH-]C(=O)c1ccccc1.[CH2-]CCC.[CH2-]CCC.[Sn+4] | 0.322 | 1.09 | – | – | 0.22 | 0.567 | 1.51 | 2.87 | 0.555 | 1.77 | – | 2.27 | 3.99 | – | – | 1.06 | 2.31 | – | – | –
C=C(CNCCc1ccc(O)cc1)[C@@H]1CC[C@]2(CO)CC[C@]3(C)[C@H](CC[C@@H]4[C@@]5(C)CCC(N)C(C)(C)[C@@H]5CC[C@]43C)[C@@H]12 (stereo partly drawn) | – | – | 1.44 | 2.98 | 1.44 | 4.04 | 1.73 | 3.3 | 1.79 | 3.4 | 1.76 | 1.84 | 3.34 | – | – | 1.73 | 3.22 | 1.52 | 2.85 | 3.28
C[C@@]12CCCC(=O)N1[C@@H](CO)C(c1ccccc1)O2 (stereo partly drawn) | – | – | – | – | – | > 100 | – | > 100 | – | > 100 | – | – | – | – | – | – | > 100 | – | – | > 100
CCN(CC)CCOc1ccc(/C=C2\CC3C4CC=C5C[C@@H](OC(C)=O)CC[C@]5(C)C4CC[C@]3(C)C2=O)cc1OC (stereo partly drawn) | – | – | 4.16 | 26.9 | 1.71 | 4.63 | 2.02 | 3.94 | 5.1 | > 100 | – | 29.5 | 95.1 | – | – | 2.53 | 6.1 | 1.78 | 3.58 | –
Cc1cc([N+](=O)[O-])c(S(=O)(=O)c2ccccc2)c([N+](=O)[O-])c1 | – | 10.7 | – | – | – | 45.9 | – | 36.9 | – | 47.6 | – | – | 74.7 | – | > 100 | – | 32.4 | – | – | 40.9
CC1(C)OC(COCCOCCCCCO)C(COCCOCCCCCO)O1 (stereo not drawn) | – | – | – | – | – | > 100 | – | > 100 | – | > 100 | – | – | > 100 | – | > 100 | – | > 100 | – | – | > 100
Cc1ccccc1NC(=O)C(=O)CC(=O)c1ccc([N+](=O)[O-])cc1 | – | – | – | – | – | > 100 | – | > 100 | – | > 100 | – | – | > 100 | – | – | – | > 100 | – | – | > 100
COC(=O)c1cc2c3c(ccc2[nH]1)N(C(=O)c1cc2c4c(ccc2[nH]1)N(C(=O)c1cc2c5c(ccc2[nH]1)N(C(N)=O)CC5)CC4)CC3 | – | > 70.5 | – | – | – | > 100 | – | 44 | – | > 24.4 | – | – | 8.02 | – | > 100 | – | 47 | – | – | > 100
Cc1ccc(-n2c3c(c4c(CN5CCOCC5)c(O)ccc42)CCc2ccccc2C3=O)cc1 | 19.9 | 92.2 | 42.4 | > 100 | 21 | > 100 | > 100 | > 100 | > 100 | > 100 | – | > 100 | > 100 | – | – | > 100 | > 100 | 29.6 | > 100 | –
